Source: patent publication US20090131468A1, “Bis-(Sulfonylamino) Derivatives in Therapy 065” (AstraZeneca AB, priority 2007, published 2009)

biological target: T1, human mPGES-1 (Homo sapiens, UniProt O14684); assay: Microsomal prostaglandin E synthase biochemical assay; conditions: microsome preparation containing human mPGES-1; PGH2 10.8 μM, GSH 2.5 mM, pH 6.8; PGE2 quantified by HTRF; average of at least n=2
T1 sequence (O14684 1-152): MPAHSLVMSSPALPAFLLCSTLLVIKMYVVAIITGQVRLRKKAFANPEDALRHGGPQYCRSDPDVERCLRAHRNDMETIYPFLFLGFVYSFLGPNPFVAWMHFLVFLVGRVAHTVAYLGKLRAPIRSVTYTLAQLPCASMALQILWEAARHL
Summary of the method: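 Human mPGES-1 microsomes (from IL-1β-stimulated A549 cells or Sf9 cells expressing human mPGES-1) were pre-incubated 15 min with compound in potassium phosphate buffer pH 6.8 with GSH. PGH2 was then added, and the reaction was stopped after one minute with acidic ferric chloride/citrate. PGE2 was read by HTRF, and IC50 was taken from control-normalised activity.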

For `COC(C)(C)C#Cc1ccc(C(=O)NS(=O)(=O)c2ccccc2S(N)(=O)=O)cc1` [Example 112, 4-(3-Methoxy-3-methylbut-1-ynyl)-N-(2-sulfamoylphenylsulfonyl)benzamide], which IC50 is on record?
Its IC50 is 1400 nM.

How did the IC50 turn out when `CC(C)(O)C#Cc1cc(C(=O)NS(=O)(=O)c2ccccc2S(N)(=O)=O)ccc1-c1cc2ccccc2o1` [Example 154, 4-(Benzofuran-2-yl)-3-(3-hydroxy-3-methylbut-1-ynyl)-N-(2-sulfamoylphenyl-sulfonyl)benzamide] was run?
Its IC50 is 9.9 nM.

Which IC50 does the source give for `NS(=O)(=O)c1ccccc1S(=O)(=O)NC(=O)c1cccc(C#CC2CCCC2)c1` [Example 66, 3-(Cyclopentylethynyl)-N-(2-sulfamoylphenylsulfonyl)benzamide] here?
The IC50 was 220 nM.

How did the IC50 turn out when `NS(=O)(=O)c1ccccc1S(=O)(=O)NC(=O)c1csc2ccccc12` [Example 40, N-(2-Sulfamoylphenyl)sulfonylbenzothiophene-3-carboxamide] was run?
Its IC50 is 2200 nM.

How did the IC50 turn out when `NS(=O)(=O)c1ccccc1S(=O)(=O)NC(=O)c1ccc(-c2cc3ccccc3o2)c(CO)c1` [Example 103, 4-(Benzofuran-2-yl)-3-(hydroxymethyl)-N-(2-sulfamoylphenylsulfonyl)benzamide] was run?
The IC50 was 15 nM.

`NS(=O)(=O)c1ccccc1S(=O)(=O)NC(=O)c1ccc(-c2cc3ccccc3o2)cc1O` [Example 49, 4-(Benzofuran-2-yl)-2-hydroxy-N-(2-sulfamoylphenylsulfonyl)benzamide] was tested. Which IC50 did it give?
The IC50 was 8.1 nM.

Which IC50 does the source give for `NS(=O)(=O)c1ccccc1S(=O)(=O)NC(=O)c1ccc2cc(-c3ccccc3)oc2c1` [Example 9, 2-Phenyl-N-(2-sulfamoylphenyl)sulfonyl-benzofuran-6-carboxamide] here?
Its IC50 is 78 nM.

With `COc1cc(-c2cc3ccccc3o2)ccc1C(=O)NS(=O)(=O)c1ccccc1S(N)(=O)=O` [Example 48, 4-(Benzofuran-2-yl)-2-methoxy-N-(2-sulfamoylphenylsulfonyl)benzamide] as the compound, how does the IC50 read?
Its IC50 is 150 nM.

With `COc1cc(C(=O)NS(=O)(=O)c2ccccc2S(N)(=O)=O)ccc1C#CC(C)(C)C` [Example 110, 4-(3,3-Dimethylbut-1-ynyl)-3-methoxy-N-(2-sulfamoylphenylsulfonyl)benzamide] as the compound, how does the IC50 read?
Its IC50 is 270 nM.

`NS(=O)(=O)c1ccccc1S(=O)(=O)NC(=O)c1ccc(C#CC2CC2)c2c1OC(F)(F)O2` [Example 159, 7-(Cyclopropylethynyl)-2,2-difluoro-N-(2-sulfamoylphenylsulfonyl)-benzo[d][1,3]dioxole-4-carboxamide] was tested. Which IC50 did it give?
The IC50 was 63 nM.

With `NS(=O)(=O)c1ccccc1S(=O)(=O)NC(=O)c1ccc2oc(-c3cccnc3)cc2c1` [Example 123, 2-(Pyridin-3-yl)-N-(2-sulfamoylphenylsulfonyl)benzofuran-5-carboxamide] as the compound, how does the IC50 read?
The IC50 was 2000 nM.

`CC(C)Oc1cc(C(=O)NS(=O)(=O)c2ccccc2S(N)(=O)=O)ccc1C#CC1(O)CCCCCC1` [Example 133, 4-((1-Hydroxycycloheptyl)ethynyl)-3-isopropoxy-N-(2-sulfamoylphenylsulfonyl)-benzamide] was tested. Which IC50 did it give?
The IC50 was 560 nM.

Which IC50 does the source give for `CC(OC(C)(C)C)c1cc2cc(C(=O)NS(=O)(=O)c3ccccc3S(N)(=O)=O)ccc2o1` (stereo not drawn) [Example 121, 2-(1-tert-Butoxyethyl)-N-(2-sulfamoylphenylsulfonyl)benzofuran-5-carboxamide] here?
The IC50 was 2100 nM.

With `CC(C)(O)C#Cc1ccc(C(=O)NS(=O)(=O)c2ccccc2S(N)(=O)=O)cc1` [Example 44, 4-(3-Hydroxy-3-methylbut-1-ynyl)-N-(2-sulfamoylphenylsulfonyl)benzamide] as the compound, how does the IC50 read?
The IC50 was 240 nM.

With `NS(=O)(=O)c1ccccc1S(=O)(=O)NC(=O)c1ccc(-c2ccccn2)s1` [Example 34, 5-Pyridin-2-yl-N-(2-sulfamoylphenyl)sulfonyl-thiophene-2-carboxamide] as the compound, how does the IC50 read?
Its IC50 is 1600 nM.

With `NS(=O)(=O)c1ccccc1S(=O)(=O)NC(=O)C1CC2CCC1C2` (stereo not drawn) [Example 17, N-(2-Sulfamoylphenyl)sulfonylnorbornane-2-carboxamide] as the compound, how does the IC50 read?
Its IC50 is 9800 nM.

Which IC50 does the source give for `CC(C)(C)C#Cc1ccc(C(=O)NS(=O)(=O)c2ccccc2S(N)(=O)=O)cc1C#N` [Example 79, 3-Cyano-4-(3,3-dimethylbut-1-ynyl)-N-(2-sulfamoylphenylsulfonyl)benzamide] here?
The IC50 was 70 nM.

Which IC50 does the source give for `COc1c(C#CC(C)(C)C)ccc(C(=O)NS(=O)(=O)c2ccccc2S(N)(=O)=O)c1F` [Example 90, 4-(3,3-Dimethylbut-1-ynyl)-2-fluoro-3-methoxy-N-(2-sulfamoylphenylsulfonyl)-benzamide] here?
The IC50 was 260 nM.

With `CC(C)Oc1cc(C(=O)NS(=O)(=O)c2ccccc2S(N)(=O)=O)cnc1C#CC1CC1` [Example 142, 6-(cyclopropylethynyl)-5-isopropoxy-N-(2-sulfamoylphenylsulfonyl)nicotinamide] as the compound, how does the IC50 read?
Its IC50 is 49 nM.

With `C[C@]1(C(=O)NS(=O)(=O)c2ccccc2S(N)(=O)=O)CC[C@H](c2cc3ccccc3o2)CC1` [Example 108, (1r,4r)-4-(Benzofuran-2-yl)-1-methyl-N-(2-sulfamoylphenylsulfonyl)cyclohexane-carboxamide] as the compound, how does the IC50 read?
The IC50 was 7000 nM.

With `Cc1cc(-c2cc3ccccc3o2)cc(C)c1C(=O)NS(=O)(=O)c1ccccc1S(N)(=O)=O` [Example 52, 4-(Benzofuran-2-yl)-2,6-dimethyl-N-(2-sulfamoylphenylsulfonyl)benzamide] as the compound, how does the IC50 read?
The IC50 was 450 nM.

With `NS(=O)(=O)c1ccccc1S(=O)(=O)NC(=O)c1ccc(C#CC2CCCC2)cc1F` [Example 85, 4-(Cyclopentylethynyl)-2-fluoro-N-(2-sulfamoylphenylsulfonyl)benzamide] as the compound, how does the IC50 read?
Its IC50 is 49 nM.

With `NS(=O)(=O)c1cc(CO)ccc1S(=O)(=O)NC(=O)c1ccc(-c2cc3ccccc3o2)cc1` [Example 161, 4-(Benzofuran-2-yl)-N-(4-(hydroxymethyl)-2-sulfamoylphenylsulfonyl)benzamide] as the compound, how does the IC50 read?
The IC50 was 320 nM.

With `NS(=O)(=O)c1ccccc1S(=O)(=O)NC(=O)c1ccc(-c2nc3cccnc3o2)cc1` [Example 7, 4-(7Oxa-5,9-diazabicyclo [4.3.0]nona-2,4,8,10-tetraen-8-yl)-N-(2-sulfamoylphenyl)-sulfonyl-benzamide] as the compound, how does the IC50 read?
Its IC50 is 1000 nM.

Which IC50 does the source give for `NS(=O)(=O)c1ccccc1S(=O)(=O)NC(=O)c1ccc(C#CC2CCCC2)c(F)c1` [Example 146, 4-(Cyclopentylethynyl)-3-fluoro-N-(2-sulfamoylphenylsulfonyl)benzamide] here?
Its IC50 is 15 nM.

`COc1cc(C(=O)NS(=O)(=O)c2ccccc2S(N)(=O)=O)cnc1C#Cc1ccc(C(F)(F)F)cc1` [Example 139, 5-Methoxy-N-(2-sulfamoylphenylsulfonyl)-6-((4-(trifluoromethyl)phenyl)-ethynyl)nicotinamide] was tested. Which IC50 did it give?
Its IC50 is 6.8 nM.

For `N#Cc1cc(C(=O)NS(=O)(=O)c2ccccc2S(N)(=O)=O)ccc1-c1cc2ccccc2o1` [Example 80, 4-(Benzofuran-2-yl)-3-cyano-N-(2-sulfamoylphenylsulfonyl)benzamide], which IC50 is on record?
Its IC50 is 130 nM.

With `COc1c(C#CC2CCCC2)ccc(C(=O)NS(=O)(=O)c2ccccc2S(N)(=O)=O)c1F` [Example 86, 4-(Cyclopentylethynyl)-2-fluoro-3-methoxy-N-(2-sulfamoylphenylsulfonyl)benzamide] as the compound, how does the IC50 read?
The IC50 was 71 nM.

With `CC(C)(C)C#Cc1cccc(C(=O)NS(=O)(=O)c2ccccc2S(N)(=O)=O)c1` [Example 60, 3-(3,3-Dimethylbut-1-ynyl)-N-(2-sulfamoylphenylsulfonyl)benzamide] as the compound, how does the IC50 read?
The IC50 was 270 nM.

Which IC50 does the source give for `Cc1cc(Br)ccc1C(=O)NS(=O)(=O)c1ccccc1S(N)(=O)=O` [Example 15, 4-Bromo-2-methyl-N-(2-sulfamoylphenyl)sulfonyl-benzamide] here?
The IC50 was 2000 nM.

`COCC#Cc1ccc(C(=O)NS(=O)(=O)c2ccccc2S(N)(=O)=O)cc1` [Example 53, 4-(3-Methoxyprop-1-ynyl)-N-(2-sulfamoylphenylsulfonyl)benzamide] was tested. Which IC50 did it give?
The IC50 was 1600 nM.

Which IC50 does the source give for `COCCOCCOc1cc(C(=O)NS(=O)(=O)c2ccccc2S(N)(=O)=O)ccc1-c1cc2ccccc2o1` [Example 119, 4-(Benzofuran-2-yl)-3-(2-(2-methoxyethoxy)ethoxy)-N-(2-sulfamoylphenylsulfonyl)-benzamide] here?
The IC50 was 17 nM.

Which IC50 does the source give for `COc1ccccc1-c1cc2cc(C(=O)NS(=O)(=O)c3ccccc3S(N)(=O)=O)ccc2o1` [Example 120, 2-(2-Methoxyphenyl)-N-(2-sulfamoylphenylsulfonyl)benzofuran-5-carboxamide] here?
Its IC50 is 28 nM.

How did the IC50 turn out when `CC(C)(C)C#Cc1ncc(C(=O)NS(=O)(=O)c2ccccc2S(N)(=O)=O)cn1` [Example 96, 2-(3,3-Dimethylbut-1-ynyl)-N-(2-sulfamoylphenylsulfonyl)pyrimidine-5-carboxamide] was run?
The IC50 was 1700 nM.

For `NS(=O)(=O)c1ccccc1S(=O)(=O)NC(=O)c1ccc(C#Cc2ccccc2)c(CO)c1` [Example 100, 3-(Hydroxymethyl)-4-(phenylethynyl)-N-(2-sulfamoylphenylsulfonyl)benzamide], which IC50 is on record?
Its IC50 is 70 nM.

`NS(=O)(=O)c1ccccc1S(=O)(=O)NC(=O)c1ccc(-c2cc3ccccc3o2)c(O)c1` [Example 51, 4-(Benzofuran-2-yl)-3-hydroxy-N-(2-sulfamoylphenylsulfonyl)benzamide] was tested. Which IC50 did it give?
The IC50 was 3.4 nM.

Which IC50 does the source give for `NS(=O)(=O)c1ccccc1S(=O)(=O)NC(=O)c1ccc(C#Cc2ccccc2)cc1` [Example 72, 4-(Phenylethynyl)-N-(2-sulfamoylphenylsulfonyl)benzamide] here?
Its IC50 is 10 nM.

Which IC50 does the source give for `CC(C)(O)C#Cc1cc(C(=O)NS(=O)(=O)c2ccccc2S(N)(=O)=O)ccc1OCc1ccccc1` [Example 156, 4-(Benzyloxy)-3-(3-hydroxy-3-methylbut-1-ynyl)-N-(2-sulfamoylphenylsulfonyl)-benzamide] here?
The IC50 was 110 nM.

For `NS(=O)(=O)c1ccccc1S(=O)(=O)NC(=O)c1ccc(-c2cc3ccccc3o2)cc1F` [Example 83, 4-(Benzofuran-2-yl)-2-fluoro-N-(2-sulfamoylphenylsulfonyl)benzamide], which IC50 is on record?
The IC50 was 42 nM.
